Results reported in US10750743B2, “Pyridazinone herbicides” (E.I. DU PONT DE NEMOURS AND COMPANY, priority 2015, dated 2020).

Tests used:
Format in all cases: in vivo
[1] = system: blackgrass (Alopecurus myosuroides); assay: Test A postemergence application, visual injury rating; conditions: 0 to 100 scale, 0 no effect, 100 complete control
From the text: (§1) Seeds of plant species selected from barnyardgrass (Echinochloa crus-galli), kochia (Kochia scoparia), ragweed (common ragweed, Ambrosia elatior), ryegrass, It. (Italian ryegrass, Lolium multiflorum), foxtail, giant (giant foxtail, Setaria faberii), and pigweed (Amaranthus retroflexus), were planted into a blend of loam soil and sand and treated preemergence with a directed soil spray using test chemicals formulated in a non-phytotoxic solvent mixture which included a surfactant.
(§2) At the same time, plants selected from these weed species and also wheat (Triticum aestivum), corn (Zea mays), blackgrass (Alopecurus myosuroides), and galium (catchweed bedstraw, Galium aparine), were planted in pots containing the same blend of loam soil and sand and treated with postemergence applications of test chemicals formulated in the same manner Plants ranged in height from 2 to 10 cm and were in the one- to two-leaf stage for the postemergence treatment. Treated plants and untreated controls were maintained in a greenhouse for approximately 10 d, after which time all treated plants were compared to untreated controls and visually evaluated for injury. Plant response ratings, summarized in Table A, are based on a 0 to 100 scale where 0 is no effect and 100 is complete control. A dash (-) response means no test result.

[2] = system: ragweed (common ragweed, Ambrosia elatior); assay: as above; conditions: for Ragweed plant response rating: 0 to 100 scale, 0 no effect, 100 complete control; for Plant response rating (0 to 100 scale), Ragweed: 0 is no effect, 100 is complete control
From the text: as §1, §2

[3] = system: ryegrass, It. (Italian ryegrass, Lolium multiflorum); assay: as above; conditions: for Ryegrass, It. plant response rating: 0 to 100 scale, 0 no effect, 100 complete control; for Plant response rating (0 to 100 scale), Ryegrass, It.: 0 is no effect, 100 is complete control
From the text: as §1, §2

[4] = system: barnyardgrass (Echinochloa crus-galli); assay: as above; conditions: 0 to 100 scale, 0 no effect, 100 complete control
From the text: as §1, §2

[5] = system: wheat (Triticum aestivum); assay: as above; conditions: for Wheat plant response rating: 0 to 100 scale, 0 no effect, 100 complete control; for Plant response rating (0 to 100 scale), Wheat: 0 is no effect, 100 is complete control
From the text: as §1, §2

[6] = system: galium (catchweed bedstraw, Galium aparine); assay: as above; conditions: for Galium plant response rating: 0 to 100 scale, 0 no effect, 100 complete control; for Plant response rating (0 to 100 scale), Galium: 0 is no effect, 100 is complete control
From the text: as §1, §2

[7] = system: foxtail, giant (giant foxtail, Setaria faberii); assay: as above; conditions: for Foxtail, Giant plant response rating: 0 to 100 scale, 0 no effect, 100 complete control; for Plant response rating (0 to 100 scale), Foxtail, Giant: 0 is no effect, 100 is complete control
From the text: as §1, §2

kochia (Kochia scoparia) [8] = assay: as above; conditions: for Kochia plant response rating: 0 to 100 scale, 0 no effect, 100 complete control
From the text: as §1, §2

corn (Zea mays) = assay: as above; conditions: for Corn plant response rating: 0 to 100 scale, 0 no effect, 100 complete control; for Plant response rating (0 to 100 scale), Corn: 0 is no effect, 100 is complete control
From the text: as §1, §2

[9] = system: pigweed (Amaranthus retroflexus); assay: as above; conditions: for Pigweed plant response rating: 0 to 100 scale, 0 no effect, 100 complete control; for Plant response rating (0 to 100 scale), Pigweed: 0 is no effect, 100 is complete control
From the text: as §1, §2

[10] = system: ragweed (common ragweed, Ambrosia elatior); assay: Test A preemergence, directed soil spray, visual injury rating; conditions: 0 is no effect, 100 is complete control
From the text: as §1, §2

[11] = system: ryegrass, It. (Italian ryegrass, Lolium multiflorum); assay: as above; conditions: 0 is no effect, 100 is complete control
From the text: as §1, §2

[12] = system: barnyardgrass (Echinochloa crus-galli); assay: as above; conditions: 0 is no effect, 100 is complete control
From the text: as §1, §2

[13] = system: foxtail, giant (giant foxtail, Setaria faberii); assay: as above; conditions: 0 is no effect, 100 is complete control
From the text: as §1, §2

kochia (Kochia scoparia) [14] = assay: as above; conditions: 0 is no effect, 100 is complete control
From the text: as §1, §2

[15] = system: pigweed (Amaranthus retroflexus); assay: as above; conditions: 0 is no effect, 100 is complete control
From the text: as §1, §2

rice (Oryza sativa) = assay: Test B flooded paddy test, visual rating; conditions: Flood, 250 g ai/ha, applied to paddy water, rated after 13 to 15 d
Method: (§3) Plant species in the flooded paddy test selected from rice (Oryza sativa), sedge, umbrella (small-flower umbrella sedge, Cyperus difformis), ducksalad (Heteranthera limosa), and barnyardgrass (Echinochloa crus-galli) were grown to the 2-leaf stage for testing. At time of treatment, test pots were flooded to 3 cm above the soil surface, treated by application of test compounds directly to the paddy water, and then maintained at that water depth for the duration of the test. Treated plants and controls were maintained in a greenhouse for 13 to 15 d, after which time all species were compared to controls and visually evaluated. Plant response ratings, summarized in Table B, are based on a scale of 0 to 100 where 0 is no effect and 100 is complete control. A dash (-) response means no test result.

[16] = system: ducksalad (Heteranthera limosa); assay: Test B flooded paddy test, visual rating; conditions: Flood, 250 g ai/ha, applied to paddy water, rated after 13 to 15 d
Method: as §3

[17] = system: barnyardgrass (Echinochloa crus-galli); assay: Test B flooded paddy test, visual rating; conditions: Flood, 250 g ai/ha, applied to paddy water, rated after 13 to 15 d
Method: as §3

[18] = system: sedge, umbrella (small-flower umbrella sedge, Cyperus difformis); assay: Test B flooded paddy test, visual rating; conditions: Flood, 250 g ai/ha, applied to paddy water, rated after 13 to 15 d
Method: as §3

Compound | Blackgrass plant response rating ([1]; 31 g ai/ha) | Blackgrass plant response rating ([1]; 125 g ai/ha) | Ragweed plant response rating ([2]; 125 g ai/ha) | Ryegrass, It. plant response rating ([3]; 125 g ai/ha) | Barnyardgrass plant response rating ([4]; 31 g ai/ha) | Barnyardgrass plant response rating ([4]; 125 g ai/ha) | Wheat plant response rating ([5]; 125 g ai/ha) | Galium plant response rating ([6]; 125 g ai/ha) | Foxtail, Giant plant response rating ([7]; 125 g ai/ha) | Corn plant response rating (corn (Zea mays); 125 g ai/ha) | Pigweed plant response rating ([9]; 125 g ai/ha) | Plant response rating (0 to 100 scale), Ragweed ([10]; 31 g ai/ha) | Plant response rating (0 to 100 scale), Ragweed ([10]; 125 g ai/ha) | Plant response rating (0 to 100 scale), Ryegrass, It. ([11]; 31 g ai/ha) | Plant response rating (0 to 100 scale), Ryegrass, It. ([11]; 125 g ai/ha) | Plant response rating (0 to 100 scale), Barnyardgrass ([12]; 31 g ai/ha) | Plant response rating (0 to 100 scale), Barnyardgrass ([12]; 125 g ai/ha) | Plant response rating (0 to 100 scale), Foxtail, Giant ([13]; 31 g ai/ha) | Plant response rating (0 to 100 scale), Foxtail, Giant ([13]; 125 g ai/ha) | Plant response rating (0 to 100 scale), Kochia (kochia (Kochia scoparia) [14]; 31 g ai/ha) | other results
Cc1cc2c(Cl)ccc(-c3c(O)c(C)nn(C)c3=O)c2o1 [Compound 43] | 0 | 50 | 20 | 80 | 0 | 10 | 10 | 80 | 0 | 0 | 0 | 30 | 30 | 60 | 80 | 10 | 30 | 10 | 40 | 0 | Ragweed plant response rating ([2]; 31 g ai/ha): 0; Ryegrass, It. plant response rating ([3]; 31 g ai/ha): 50; Wheat plant response rating ([5]; 31 g ai/ha): 0; Galium plant response rating ([6]; 31 g ai/ha): 70; Foxtail, Giant plant response rating ([7]; 31 g ai/ha): 0; Kochia plant response rating (kochia (Kochia scoparia) [8]; 31 g ai/ha): 0; Kochia plant response rating (kochia (Kochia scoparia) [8]; 125 g ai/ha): 0; Corn plant response rating (corn (Zea mays); 31 g ai/ha): 0; Pigweed plant response rating ([9]; 31 g ai/ha): 0; Plant response rating (0 to 100 scale), Kochia (kochia (Kochia scoparia) [14]; 125 g ai/ha): 0; Plant response rating (0 to 100 scale), Pigweed ([15]; 31 g ai/ha): 0; Plant response rating (0 to 100 scale), Pigweed ([15]; 125 g ai/ha): 0; Rice plant response rating (0 to 100 scale, 0 is no effect, 100 is complete control) (rice (Oryza sativa)): 0; Ducksalad plant response rating (0 to 100 scale, 0 is no effect, 100 is complete control) [16]: 40; Barnyardgrass plant response rating (0 to 100 scale, 0 is no effect, 100 is complete control) [17]: 0; Sedge, Umbrella plant response rating (0 to 100 scale, 0 is no effect, 100 is complete control) [18]: 35
CC(=O)Oc1c(C)nn(C)c(=O)c1-c1ccc(Cl)c2sccc12 [Compound 60] | 0 | 0 | 0 | 10 | 0 | 0 | 0 | 100 | 0 | 0 | 30 | 0 | 0 | 0 | 10 | 0 | 0 | 0 | 0 | 0 | Plant response rating (0 to 100 scale), Ragweed ([2]; 31 g ai/ha): 0; Plant response rating (0 to 100 scale), Ryegrass, It. ([3]; 31 g ai/ha): 0; Plant response rating (0 to 100 scale), Wheat ([5]; 31 g ai/ha): 0; Plant response rating (0 to 100 scale), Galium ([6]; 31 g ai/ha): 20; Plant response rating (0 to 100 scale), Foxtail, Giant ([7]; 31 g ai/ha): 0; Plant response rating (0 to 100 scale), Kochia (kochia (Kochia scoparia) [8]; 31 g ai/ha, 0 is no effect, 100 is complete control): 20; Kochia plant response rating (kochia (Kochia scoparia) [8]; 125 g ai/ha): 70; Plant response rating (0 to 100 scale), Corn (corn (Zea mays); 31 g ai/ha): 0; Plant response rating (0 to 100 scale), Pigweed ([9]; 31 g ai/ha): 0; Plant response rating (0 to 100 scale), Kochia (kochia (Kochia scoparia) [14]; 125 g ai/ha): 0; Plant response rating (0 to 100 scale), Pigweed ([15]; 31 g ai/ha): 0; Plant response rating (0 to 100 scale), Pigweed ([15]; 125 g ai/ha): 100; Rice plant response rating (0 to 100 scale, 0 is no effect, 100 is complete control) (rice (Oryza sativa)): 0; Ducksalad plant response rating (0 to 100 scale, 0 is no effect, 100 is complete control) [16]: 0; Barnyardgrass plant response rating (0 to 100 scale, 0 is no effect, 100 is complete control) [17]: 0; Sedge, Umbrella plant response rating (0 to 100 scale, 0 is no effect, 100 is complete control) [18]: 0
CCC(=O)Oc1c(C)nn(C)c(=O)c1-c1ccc(Cl)c2sccc12 [Compound 58] | 0 | 0 | 0 | 10 | 0 | 0 | 0 | 90 | 0 | 0 | 20 | 0 | 80 | 0 | 50 | 0 | 0 | 20 | 0 | 0 | Ragweed plant response rating ([2]; 31 g ai/ha): 0; Ryegrass, It. plant response rating ([3]; 31 g ai/ha): 0; Wheat plant response rating ([5]; 31 g ai/ha): 0; Galium plant response rating ([6]; 31 g ai/ha): 20; Foxtail, Giant plant response rating ([7]; 31 g ai/ha): 0; Kochia plant response rating (kochia (Kochia scoparia) [8]; 31 g ai/ha): 0; Kochia plant response rating (kochia (Kochia scoparia) [8]; 125 g ai/ha): 60; Corn plant response rating (corn (Zea mays); 31 g ai/ha): 0; Pigweed plant response rating ([9]; 31 g ai/ha): 0; Plant response rating (0 to 100 scale), Kochia (kochia (Kochia scoparia) [14]; 125 g ai/ha): 70; Plant response rating (0 to 100 scale), Pigweed ([15]; 31 g ai/ha): 20; Plant response rating (0 to 100 scale), Pigweed ([15]; 125 g ai/ha): 0; Rice plant response rating (0 to 100 scale, 0 is no effect, 100 is complete control) (rice (Oryza sativa)): 0; Ducksalad plant response rating (0 to 100 scale, 0 is no effect, 100 is complete control) [16]: 0; Barnyardgrass plant response rating (0 to 100 scale, 0 is no effect, 100 is complete control) [17]: 0
CC(=O)Oc1c(Cl)nn(C)c(=O)c1-c1cccc2cccnc12 [Compound 71] | 10 | 70 | 70 | 90 | 10 | 40 | 30 | 80 | 30 | 0 | 50 | 0 | 10 | 20 | 80 | 0 | 20 | 0 | 10 | 0 | Plant response rating (0 to 100 scale), Ragweed ([2]; 31 g ai/ha): 30; Plant response rating (0 to 100 scale), Ryegrass, It. ([3]; 31 g ai/ha): 50; Plant response rating (0 to 100 scale), Wheat ([5]; 31 g ai/ha): 0; Plant response rating (0 to 100 scale), Galium ([6]; 31 g ai/ha): 60; Plant response rating (0 to 100 scale), Foxtail, Giant ([7]; 31 g ai/ha): 10; Plant response rating (0 to 100 scale), Corn (corn (Zea mays); 31 g ai/ha): 0; Plant response rating (0 to 100 scale), Pigweed ([9]; 31 g ai/ha): 20; Plant response rating (0 to 100 scale), Kochia (kochia (Kochia scoparia) [14]; 125 g ai/ha): 30; Plant response rating (0 to 100 scale), Pigweed ([15]; 31 g ai/ha): 0; Plant response rating (0 to 100 scale), Pigweed ([15]; 125 g ai/ha): 60; Rice plant response rating (0 to 100 scale, 0 is no effect, 100 is complete control) (rice (Oryza sativa)): 0; Ducksalad plant response rating (0 to 100 scale, 0 is no effect, 100 is complete control) [16]: 0; Barnyardgrass plant response rating (0 to 100 scale, 0 is no effect, 100 is complete control) [17]: 0; Sedge, Umbrella plant response rating (0 to 100 scale, 0 is no effect, 100 is complete control) [18]: 0
